The source of these data is publication PMC11596957, “Biological Characteristics of a Novel Bibenzyl Synthase (DoBS1) Gene from Dendrobium officinale Catalyzing Dihydroresveratrol Synthesis” (Molecules, 2024).

This assay deals with T1, DoBS1 (bibenzyl synthase) (Dendrobium officinale, UniProt Z9NEY1S5B3).
T1 construct: type III PKS family known as homodimer
T1 sequence (Z9NEY1S5B3 1-390): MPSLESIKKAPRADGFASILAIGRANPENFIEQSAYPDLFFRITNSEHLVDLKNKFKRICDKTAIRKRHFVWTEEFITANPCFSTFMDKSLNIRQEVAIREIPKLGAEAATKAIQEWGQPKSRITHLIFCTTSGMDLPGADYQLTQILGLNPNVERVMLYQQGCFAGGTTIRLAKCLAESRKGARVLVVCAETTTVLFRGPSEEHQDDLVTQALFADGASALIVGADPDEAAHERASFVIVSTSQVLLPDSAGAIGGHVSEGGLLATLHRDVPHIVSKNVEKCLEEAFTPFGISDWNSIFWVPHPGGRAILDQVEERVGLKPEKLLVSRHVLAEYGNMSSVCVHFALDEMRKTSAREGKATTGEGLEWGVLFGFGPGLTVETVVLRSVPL
Description: HPLC of dihydroresveratrol formation, Michaelis-Menten fit. It counts as biochemical. As to conditions: co-substrate malonyl-CoA (2.5 mM in the described assay), 37 °C, 30 min; text gives the Km 'for DHR' production, Figure 7 legend names p-coumaroyl-CoA as varied substrate; unit printed as mmol. The text has this:
HPLC of dihydroresveratrol formation, Michaelis-Menten fit on DoBS1 (bibenzyl synthase) | Kinetic analysis of DoBS1 toward p-coumaroyl-CoA

On to `CC(C)(COP(=O)(O)OP(=O)(O)OC[C@H]1O[C@@H](n2cnc3c(N)ncnc32)[C@H](O)[C@@H]1OP(=O)(O)O)[C@@H](O)C(=O)NCCC(=O)NCCSC(=O)/C=C/c1ccc(O)cc1` [p-coumaroyl-CoA], for which the Km is listed as 0.30 ± 0.08 mmol.
